For 14 compounds, IC50 results are on record in patent US9181258B2, “Substituted 3,4-dihydropyrrolo[1,2-a]pyrazin-1(2H)-ones as protein kinase inhibitors” (NERVIANO MEDICAL SCIENCES S.R.L., priority 2011, dated 2015).

Molecules are shown by their SMILES. Where a name gives a salt, the structure may show the parent alone.

As a reminder, the IC50 is the concentration needed to halve the response being measured.

The target in assay [1] is human PIM1 (Homo sapiens (Human), UniProt P11309). Nature of the assay: Biochemical assay for inhibitors of PIM1 kinase activity (trans-phosphorylation, Dowex technique). The following applies: ATP 200 μM, Aktide 25 μM, enzyme 1 nM; read-out: PIM-1 IC50. The procedure:
Biochemical Assay for Inhibitors of PIM1 Kinase Activity
The inhibitory activity of putative kinase inhibitors and the potency of selected compounds were determined using a trans-phosphorylation assay.
Specific peptide or protein substrates were trans-phosphorylated by their specific ser-thr or tyr kinase in the presence of ATP traced with ^33P-γ-ATP, and in the presence of their own optimal buffer and cofactors.
At the end of the phosphorylation reaction, more than 98% unlabeled ATP and radioactive ATP were captured by an excess of the ion exchange dowex resin; the resin then settled down to the bottom of the reaction plate by gravity. Supernatant was subsequently withdrawn and transferred into a counting plate, then evaluated by β-counting.
Reagents/Assay Conditions i. Dowex Resin Preparation
500 g of wet resin (SIGMA, custom prepared resin DOWEX 1×8 200-400 mesh, 2.5 Kg) were weighed out and diluted to 2 L in 150 mM sodium formate, pH 3.00.
The resin was allowed to settle down (some hours) and then the supernatant was discarded.
After three washes as above over a couple of days, the resin was allowed to settle and two volumes (wrt the resin volume) of 150 mM sodium formate buffer were added.
The pH was then measured and should have been around 3.00.
The washed resin was stable for more than one week; the stock resin was kept at 4° C. before use.
The buffer for PIM1 assay was composed of HEPES 50 mM, at pH 7.5, with 10 mM MgCl2, 1 mM DTT, 3 μM NaVO3, and 0.2 mg/mL BSA.
Full-length human PIM1 was expressed and purified as described in Bullock A N, et al., J. Biol. Chem. 2005, 280, 41675-82.
1.7 μM PIM1 was incubated 1 h at 28° C. in the presence of 125 μM ATP.
ATP concentration: 200 μM; ^33P-γ-ATP: 6 nM; Enzyme concentration: 1 nM Substrate concentration Aktide (Chemical Abstract Service Registry Number 324029-01-8): 25 μM iv. Robotized Dowex Assay
The test mix consisted of:
1) 3× Enzyme mix (done in Kinase Buffer 3×), 5 μL/well
2) 3× substrate and ATP mix (done in ddH2O), together with ^33P-γ-ATP, 5 μL/well 3) 3× test compounds (diluted into ddH2O—3% DMSO)—5 μL/well See below for compound dilution and assay scheme […]
An automated station (Biomek FX, Beckman) was used for serial dilutions, producing 1:3 dilutions in 100% DMSO, from line A1 to A10, for all the compounds in the column.
Data were analyzed by an internally customized version of the “Assay Explorer” SW package, which provided sigmoidal fitting of the ten-dilution curves for IC50 determination in secondary assay/hit confirmation routines.

Assay [2] addresses human PIM2 (Homo sapiens (Human), UniProt Q9P1W9). Briefly: PIM2 kinase inhibition assay: Dowex technique. The class given is biochemical. The following applies: ATP 4 μM, Aktide 5 μM, enzyme 1.5 nM; read-out: PIM-2 IC50. As for the experimental part:
Method for PIM2 Kinase Inhibition Assay: Dowex Technique
The buffer for PIM2 assay was composed of HEPES 50 mM, at pH 7.5, with 1 mM MgCl2, 1 mM DTT, 3 μM Na3VO4, and 0.2 mg/mL BSA.
Full-length human PIM2 was expressed and purified as described in Fedorov O, et al., PNAS 2007 104, 51, 20523-28. ii. Assay Conditions (Final Concentrations)
Enzyme concentration=1.5 nM; ATP=4 μM; ^33P-γ-ATP=1 nM
Aktide substrate (Chemical Abstract Service Registry Number 324029-01-8)=5 μM iii. Robotized Dowex Assay
See above: same procedure as described for PIM1.

In assay [3] the test system is BaF3-PIM1 cells. Briefly: In vitro cell proliferation assay (CellTiter-Glo), BaF3-PIM1. The format is cell-based. The following applies: 72 hours. The procedure: (§1) In Vitro Cell Proliferation Assay
(§2) BaF3-PIM1 and MV-4-11 cells were seeded at 125 cells/well and 1250 cells/well respectively in a 384-well white plates in complete medium and treated with compounds dissolved in 0.1% DMSO, 24 h after seeding.
(§3) The cells were incubated at 37° C. and 5% CO2 and after 72 hours the plates were processed using CellTiter-Glo assay (Promega) following the manufacturer's instruction.
(§4) CellTiter-Glo was a homogenous method based on the quantification of the ATP present, an indicator of metabolitically active cells. ATP was quantified using a system based on luciferase and D-luciferin resulting into light generation. The luminescent signal was proportional to the number of cells present in culture.
(§5) Briefly 25 μl/well reagent solution were added to each wells and after 5 minutes shacking microplates were red by Envision (PerkinElmer) luminometer. The luminescent signal was proportional to the number of cells present in culture.
(§6) Inhibitory activity was evaluated comparing treated versus control data using Assay Explorer (MDL) program. IC50 was calculated using sigmoidal interpolation curve.
(In ATP-based viability assays light output follows the ATP content of the culture.)

The subject of assay [4] is MV-4-11 cells. Briefly: In vitro cell proliferation assay (CellTiter-Glo), MV-4-11. The class given is cell-based. The following applies: Homo sapiens, MV4-11, 72 hours. As for the experimental part:
as §1
MV-4-11 (biphenotypic B myelomonocytic leukemia) cell line was obtained from ATCC.
Media for MV-4-11 cell line contained RPMI 1640 or EMEM plus 2 mM Glutamine and 10% Fetal bovine serum.
as §2, §3, §4, §5, §6

human PIM2, sequence (Q9P1W9 whole entry): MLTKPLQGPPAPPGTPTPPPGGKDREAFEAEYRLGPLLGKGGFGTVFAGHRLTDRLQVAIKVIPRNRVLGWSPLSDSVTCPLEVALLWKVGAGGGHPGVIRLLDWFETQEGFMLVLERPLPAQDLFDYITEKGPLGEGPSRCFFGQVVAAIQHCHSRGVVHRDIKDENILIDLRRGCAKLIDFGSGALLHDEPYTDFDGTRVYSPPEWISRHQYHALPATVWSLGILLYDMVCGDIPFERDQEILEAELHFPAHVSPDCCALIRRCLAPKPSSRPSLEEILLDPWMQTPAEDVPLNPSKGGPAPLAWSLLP
human PIM1, sequence (P11309 whole entry): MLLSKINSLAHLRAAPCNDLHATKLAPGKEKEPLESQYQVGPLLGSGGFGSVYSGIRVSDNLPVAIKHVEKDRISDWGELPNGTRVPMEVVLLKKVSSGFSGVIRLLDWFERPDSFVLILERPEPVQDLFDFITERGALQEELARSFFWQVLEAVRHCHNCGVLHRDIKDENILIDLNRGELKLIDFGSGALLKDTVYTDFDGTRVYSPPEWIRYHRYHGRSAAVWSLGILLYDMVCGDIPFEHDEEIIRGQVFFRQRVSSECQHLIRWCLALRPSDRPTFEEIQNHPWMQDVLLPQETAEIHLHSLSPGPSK

Take `NCC[C@H]1CNC(=O)c2cc(-c3cccc(OC(F)(F)F)c3)c(-c3ccc4c(c3)OCO4)n21` [Compound 112, (4S)-4-(2-aminoethyl)-6-(1,3-benzodioxol-5-yl)-7-[3-(trifluoromethoxy)phenyl]-3,4-dihydropyrrolo[1,2-a]pyrazin-1(2H)-one hydrochloride]: the IC50 was 6 nM in assay [1], 16 nM in assay [2], 71 nM in assay [3] and 1770 nM in assay [4].

On to `NCC[C@H]1CNC(=O)c2cc(-c3cccc(OC(F)(F)F)c3)c(-c3ccc(F)cc3)n21` [Compound 94, (4S)-4-(2-aminoethyl)-6-(4-fluorophenyl)-7-[3-(trifluoromethoxy)phenyl]-3,4-dihydropyrrolo[1,2-a]pyrazin-1(2H)-one hydrochloride], for which the IC50 came out at 20 nM in assay [1], 27 nM in assay [2], 428 nM in assay [3] and 5420 nM in assay [4].

As for `CN1CCN(Cc2ccc(-c3c(-c4cccc(OC(F)(F)F)c4)cc4n3C(CCCl)CNC4=O)cc2)CC1` (centres unmarked) [Compound 71, 4-(2-chloroethyl)-6-{4-[(4-methylpiperazin-1-yl)methyl]phenyl}-7-[3-(trifluoromethoxy)phenyl]-3,4-dihydropyrrolo[1,2-a]pyrazin-1(2H)-one trifluoroacetate], the IC50 in assay [1] stood at 14 nM; in assay [2], 44 nM; in assay [3], 273 nM; in assay [4], 3140 nM.

For the compound `NCCC1CNC(=O)c2cc(-c3cccc(C(F)(F)F)c3)c(-c3ccsc3)n21` (centres unmarked) [Compound 40, 4-(2-aminoethyl)-6-(thiophen-3-yl)-7-[3-(trifluoromethyl)phenyl]-3,4-dihydropyrrolo[1,2-a]pyrazin-1(2H)-one hydrochloride], the IC50 in assay [1] was 43 nM; in assay [2], 155 nM; in assay [3] it was 340 nM; in assay [4], 5040 nM.

On to `NCC[C@H]1CNC(=O)c2cc(-c3cccc(OC(F)(F)F)c3)c(-c3ccc4ccccc4c3)n21` [Compound 118, (4S)-4-(2-aminoethyl)-6-(naphthalen-2-yl)-7-[3-(trifluoromethoxy)phenyl]-3,4-dihydropyrrolo[1,2-a]pyrazin-1(2H)-one hydrochloride], for which the IC50 in assay [1] was determined as 27 nM; in assay [2] it was 152 nM; in assay [3] it was 310 nM; in assay [4] it was 760 nM.

Consider `CN(C)Cc1ccc(-c2c(-c3cccc(OC(F)(F)F)c3)cc3n2C(CCO)CNC3=O)cc1` (centres unmarked) [Compound 83, 6-{4-[(dimethylamino)methyl]phenyl}-4-(2-hydroxyethyl)-7-[3-(trifluoromethoxy)phenyl]-3,4-dihydropyrrolo[1,2-a]pyrazin-1(2H)-one trifluoroacetate], for which the IC50 is 4 nM in assay [1], 38 nM in assay [2], 329 nM in assay [3] and 2890 nM in assay [4].

Take `COc1ccc(-c2c(-c3cccc(OC(F)(F)F)c3)cc3n2[C@@H](CCN)CNC3=O)cc1` [Compound 116, (4S)-4-(2-aminoethyl)-6-(4-methoxyphenyl)-7-[3-(trifluoromethoxy)phenyl]-3,4-dihydropyrrolo[1,2-a]pyrazin-1(2H)-one hydrochloride]: the half-inhibitory concentration (IC50) was 3 nM in assay [1], 22 nM in assay [2], 142 nM in assay [3] and 861 nM in assay [4].

Take `NCC[C@H]1CNC(=O)c2cc(-c3cccc(OC(F)(F)F)c3)c(-c3cccc(Cl)c3)n21` [Compound 126, (4S)-4-(2-aminoethyl)-6-(3-chlorophenyl)-7-[3-(trifluoromethoxy)phenyl]-3,4-dihydropyrrolo[1,2-a]pyrazin-1(2H)-one hydrochloride]: the IC50 in assay [1] was found to be 13 nM; in assay [2] it was 21 nM; in assay [3], 125 nM; in assay [4], 776 nM.

On to `CN(C)Cc1ccc(-c2c(-c3cccc(OC(F)(F)F)c3)cc3n2[C@@H](CCN)CNC3=O)cc1` [Compound 101, (4S)-4-(2-aminoethyl)-6-{4-[(dimethylamino)methyl]phenyl}-7-[3-(trifluoromethoxy)phenyl]-3,4-dihydropyrrolo[1,2-a]pyrazin-1(2H)-one hydrochloride], for which the IC50 in assay [1] was 1 nM; in assay [2], 9 nM; in assay [3] it was 296 nM; in assay [4] it was 939 nM.

For `NCCC1CNC(=O)c2cc(-c3cc(Cl)ccc3F)c(-c3ccccc3)n21` (centres unmarked) [Compound 57, 4-(2-aminoethyl)-7-(5-chloro-2-fluorophenyl)-6-phenyl-3,4-dihydropyrrolo[1,2-a]pyrazin-1(2H)-one hydrochloride], the IC50 in assay [1] was found to be 16 nM; in assay [2], 32 nM; in assay [3] it was 239 nM; in assay [4], 2600 nM.

As for `CC(=O)NCC[C@H]1CNC(=O)c2cc(-c3cccc(OC(F)(F)F)c3)c(-c3ccccc3)n21` [Compound 142, N-(2-{(4S)-1-oxo-6-phenyl-7-[3-(trifluoromethoxy)phenyl]-1,2,3,4-tetrahydropyrrolo[1,2-a]pyrazin-4-yl}ethyl)acetamide], the IC50 was 34 nM in assay [1], 174 nM in assay [2], 491 nM in assay [3] and 4890 nM in assay [4].

`NCC[C@H]1CNC(=O)c2cc(-c3cccc(OC(F)(F)F)c3)c(-c3cccc(C(F)(F)F)c3)n21` [Compound 125, (4S)-4-(2-aminoethyl)-7-[3-(trifluoromethoxy)phenyl]-6-[3-(trifluoromethyl)phenyl]-3,4-dihydropyrrolo[1,2-a]pyrazin-1(2H)-one hydrochloride]: the IC50 was 44 nM in assay [1], 97 nM in assay [2], 304 nM in assay [3] and 940 nM in assay [4].

Consider `CN(C)c1ccc(-c2c(-c3cccc(OC(F)(F)F)c3)cc3n2[C@@H](CCN)CNC3=O)cc1` [Compound 115, (4S)-4-(2-aminoethyl)-6-[4-(dimethylamino)phenyl]-7-[3-(trifluoromethoxy)phenyl]-3,4-dihydropyrrolo[1,2-a]pyrazin-1(2H)-one hydrochloride], for which the IC50 in assay [1] is 3 nM; in assay [2], 46 nM; in assay [3] it was 76 nM; in assay [4] it was 812 nM.

`NCC[C@H]1CNC(=O)c2cc(-c3cccc(OC(F)(F)F)c3)c(-c3ccc(C=O)cc3)n21` [Compound 97, 4-{(4S)-4-(2-aminoethyl)-1-oxo-7-[3-(trifluoromethoxy)phenyl]-1,2,3,4-tetrahydropyrrolo[1,2-a]pyrazin-6-yl}benzaldehyde hydrochloride]: the IC50 in assay [1] stood at 7 nM; in assay [2], 22 nM; in assay [3], 1500 nM; in assay [4], 2100 nM.
